What was measured:
H4 cells = assay: Long-lived protein degradation assay; type: cell-based; details: 10 μM, 6 h
Protocol: The rates of long-lived protein turnover in H4 cells treated with indicated compounds (10 μM, 6 h); rapamycin as positive control. Values expressed as fold changes relative to normal control cells. Mean ±s.e.m. from 4 independent experiments (n=4). One-way ANOVA, post hoc Dunnett's test. **P=0.002, 0.0023 (left to right); *P=0.0229; n.s. not significant (P=0.8669).
H4 cells were cultured with L-[3,4,5-^3H(N)]-leucine (0.1 μCi/ml) (PerkinElmer Life Sciences) for 24 h and chased in media with nonradioactive leucine for 18 h to let the degradation of short-lived proteins happen. Then the media was changed and incubated for additional 6 h along with different compounds (10 μM Apt-1, 10 μM ICCB-19, 10 μM ICCB-19i, 1 μM rapamycin). The media were recovered and treated with 10% trichloroacetic acid to separate trichloroacetic acid-soluble (amino acids) and trichloroacetic acid-insoluble (proteins) fractions. The cells were completely dissolved with 1N NaOH. Radioactivity was measured with a liquid scintillation analyzer (PerkinElmer). Long-lived protein degradation was calculated by dividing trichloroacetic acid-soluble radioactivity in the media by total radioactivity detected in the cells and media. The values were expressed as changes in fold from the value obtained in control cells.

[1] = system: Beclin 1/Vps34 kinase complex; assay: Vps34 lipid kinase assay on Beclin 1/Vps34 complex from treated HEK293T cells; type: cell-based; details: 10 μM, 6 h
Protocol: FIG. 6j Beclin 1/Vps34 kinase complex isolated from Flag-Beclin 1 transfected HEK293T cells treated with ICCB-19, Apt-1, or ICCB-19i (10 μM) for 6 h. PI3P kinase activity was measured by in vitro lipid kinase assay using ADP-Glo Kinase Assay Kit. Wortmannin (10 μM) was used as a control to inhibit Vps34 kinase activity. Mean±s.d. from technical quadruplicates (n=4), representative of 3 independent experiments. One-way ANOVA, post hoc Dunnett's tests. ***P=0.0003; ***P<0.001 (left to right).
WT mice (n=10, male, 8 weeks of age) were injected intravenously via the tail vein with mTNFα (9.5 μg/mouse) after an intraperitoneal injection of Apt-1 (20 mg/kg) 30 min before. Control mice (n=9) received an equal amount of vehicle 30 min before mTNFα challenge. Kaplan Meier survival curve was determined. 25. Vps34 lipid kinase assay HEK293T cells were transfected with Flag-Beclin 1 for 18 h and then treated with ICCB-19, ICCB-19i, Apt-1 (10 μM) for another 6 h. Flag-Beclin 1 was immunoprecipitated by anti-Flag to isolate Beclin 1/Vps34 complex. Immunoprecipitated beads were added with sonicated phosphatidylinositol (1 μl of 5 mg) and ATP (1 μl of 10 mM) in 30 μl reaction buffer (40 mM Tris (pH 7.5), 20 mM MgCl2, 1 mg/ml BSA) for 30 min at room temperature. […] The conversion of ATP into ADP levels was measured by an ADP-Glo Kinase Assay Kit (Promega) according to the manufacturer's instructions.

TRADD-N and TRAF2-C = target: T1, TRADD-N and TRAF2-C (Homo sapiens, UniProt Q15628); assay: NanoBiT protein-protein interaction assay TRADD-N / TRAF2-C; type: cell-based
T1 construct: expression constructs encoding Flag-TRADD-N(1-179) and HA-TRADD-C(180-312); expressed in transfected cells; host or cells: HEK293T
T1 sequence (Q15628 1-179): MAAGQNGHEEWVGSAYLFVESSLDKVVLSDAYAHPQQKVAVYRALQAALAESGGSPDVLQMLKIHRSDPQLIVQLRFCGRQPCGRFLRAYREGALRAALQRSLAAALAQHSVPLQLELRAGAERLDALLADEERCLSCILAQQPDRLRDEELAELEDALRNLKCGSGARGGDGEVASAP
Protocol: Mean ±s.d. from quadruplicates (n=4).
The Nano-Glo Live Cell assay kit (Promega) was used as follows: HEK293T cells were seeded at 7.5×10^3 cells per well in a white, clear-bottom 96-well plate 12 h before transfection (10 ng LgBiT-fused construct and 10 ng SmBiT-fused construct). After 24 h incubation, medium was removed and replaced with 100 μl Opti-MEM medium for 1 h at 37C. The Nano-Glo reagent was prepared as per manufacturer's instructions and added to each well immediately before the luminescence reading was taken. Luminescence was measured at 1 min intervals for 10 min on a plate reader and reported as relative light units (RLU). For quantitative comparison of LgBiT-SmBiT interactions, the peak values at the 2-3 min time point were used. Concentration of compounds used in NanoBiT assay: 10 μM (Apt-1, ICCB-19 or ICCB-19i).

mice injected with mTNFα = assay: In vivo delivery of TNFα, systemic inflammation model; details: Apt-1 20 mg/kg i.p. 30 min before mTNFα 9.5 μg i.v.
Protocol: Control mice (n=9) received an equal amount of vehicle before mTNFα challenge. Mean s.e.m. Two-way ANOVA. ***P=0.0007.
WT mice (n=10, male, 8 weeks of age) were injected intravenously via the tail vein with mTNFα (9.5 μg/mouse) after an intraperitoneal injection of Apt-1 (20 mg/kg) 30 min before. Control mice (n=9) received an equal amount of vehicle 30 min before mTNFα challenge. Kaplan Meier survival curve was determined. 25. Vps34 lipid kinase assay HEK293T cells were transfected with Flag-Beclin 1 for 18 h and then treated with ICCB-19, ICCB-19i, Apt-1 (10 μM) for another 6 h. Flag-Beclin 1 was immunoprecipitated by anti-Flag to isolate Beclin 1/Vps34 complex. Immunoprecipitated beads were added with sonicated phosphatidylinositol (1 μl of 5 mg) and ATP (1 μl of 10 mM) in 30 μl reaction buffer (40 mM Tris (pH 7.5), 20 mM MgCl2, 1 mg/ml BSA) for 30 min at room temperature. Wortmannin (10 μM) was used as a control and added into the reaction to inhibit Vps34. The conversion of ATP into ADP levels was measured by an ADP-Glo Kinase Assay Kit (Promega) according to the manufacturer's instructions.

[2] = system: brain slices from PS19 mice; assay: Cultured organotypic brain slices from PS19 mice; type: cell-based; details: treatment for 3 h
Protocol: FIG. 14g contains epresentative images and quantification of cultured brain slices from PS19 mice (4 months old) stained with phospho-tau (red) and cell nuclei (DAPI/blue). Mean ±s.e.m. from biological replicates (n=5). Two-tailed t-test.
PS19 mice (4 months old) were anesthetized with isoflurane prior to decapitation. The brain was removed and immediately immersed in ice-cold cutting solution (2.5 mM KCl, 5 mM MgCl2, 11 mM D-Glucose, 238 mM Sucrose, 26 mM NaHCO3, 1 mM NaH2PO4, 1 mM CaCl2)). The cerebellum was trimmed off and the caudal end of the brain was glued onto the cutting table of the vibratome (LEICA VT1000 S, Germany). The brain was cut in coronal slices of […] with an amplitude of 1.5 mm, a frequency of 75 Hz and a velocity of 0.1 mm/s. The slices were collected and stored in ice-cold cutting solution before floating onto semi-porous membrane inserts (Millipore, Millicell-CMLow Height Culture Plate Inserts, Schwalbach, Germany). Slices were cultured at 37° C. and 5% CO2 in a culture medium consisting of 394 ml MEM, 10% normal horse serum, 5 mg/mL penicillin, 5 mg/mL streptomycin, 2.5 ml L-glutamine, 1 mM MgSO4, 11 mM D-Glucose, 238 mM Sucrose, 5 mM NaHCO3, 1 mM CaCl2), 26.6 mM HEPES, 0.024 ml 25% ascorbic acid and 0.5 mg Insulin. Medium was changed every other day. Slices are maintained for 14 days in vitro prior to treatment.

Structure (SMILES)	degradation of long-lived proteins (H4 cells)	Vps34 lipid kinase activity [1]	direct binding of TRADD-N and TRAF2 (NanoBiT) (TRADD-N and TRAF2-C)	survival following intravenously-delivered TNFα (mice injected with mTNFα)	autophagy and accumulation of mutant tau in brain slices [2]
O=C(CSC1=NCCN1)NC1CCCCCC1 [ICCB-19]	effectively induced	increased Vps34 lipid kinase activity			
CN1CCN=C1SC(C(=O)NC1CCCCCC1)c1ccccc1 (stereo not shown) [Compound 30]	effectively induced	increased Vps34 lipid kinase activity	dose-dependently reduced	increased survival	induced autophagy and reduced the accumulation of mutant tau

— patent US20230219898A1, “COMPOUNDS AND METHODS FOR BLOCKING APOPTOSIS AND INDUCING AUTOPHAGY” (President and Fellows of Harvard College, priority 2020, published 2023)
